Results reported in patent US20060069132A1, “Azolecarboxamide herbicides” (priority 2004, published 2006).

Assays:
[1] = system: velvetleaf; test: Test A pre-/postemergence herbicide test; assay type: in vivo, Abutilon theophrasti
In short: (§1)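 Seeds sown in sandy loam received a preemergence directed soil spray of compound in non-phytotoxic solvent with surfactant; postemergence plants (2–10 cm, one- to two-leaf stage) were sprayed to runoff at the same time. After ~10 days in greenhouse, injury was rated visually versus untreated controls (0 = no effect, 100 = complete control).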

[2] = system: velvetleaf; test: Test B pre-/postemergence herbicide test; assay type: in vivo, Abutilon theophrasti; settings: for Velvetleaf plant response rating (0 to 100 scale): 0 = no effect, 100 = complete control; for Velvetleaf plant response rating (0 to 100 scale) / Plant response rating, Velvetleaf: preemergence; for Plant response rating, Velvetleaf: visual rating 0-100, 0 no effect, 100 complete control; for Velvetleaf plant response rating: postemergence, visual rating, scale 0 (no effect) to 100 (complete control)
In short: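 Greenhouse pot assay with simultaneous preemergence (treated seed) and postemergence (2–18 cm seedlings) applications of surfactant-containing, non-phytotoxic solvent formulations. Response scored visually 13–15 days later on a 0–100 scale, 100 meaning complete control.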

[3] = system: morningglory; test: Test C pre-/postemergence herbicide test; assay type: in vivo, Ipomoea coccinea; set-up: key to Plant response rating, Morningglory: 0 = no effect, 100 = complete control; settings: for Plant response rating, Morningglory: preemergence; for Morningglory plant response rating: Preemergence, 500 g ai/ha, scale 0 to 100, 0 no effect, 100 complete control
In short: (§2)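 Seeds were planted and sprayed preemergence with test chemicals in a non-phytotoxic solvent mixture containing surfactant; postemergence treatments went onto plants 2 to 18 cm tall (1- to 4-leaf stage). After 12 to 14 days in a greenhouse, injury was rated visually against untreated controls on a 0–100 scale.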

[4] = system: soybean; test: Test C pre-/postemergence herbicide test; assay type: in vivo, Glycine max; settings: for Plant response rating, Soybean: preemergence; for Soybean plant response rating: Preemergence, 500 g ai/ha, scale 0 to 100, 0 no effect, 100 complete control
In short: as §2

[5] = system: woolly cupgrass; test: Test C pre-/postemergence herbicide test; assay type: in vivo, Eriochloa villosa; settings: for Plant response rating, Cupgrass, Woolly: preemergence; for Cupgrass, Woolly plant response rating: Preemergence, 500 g ai/ha, scale 0 to 100, 0 no effect, 100 complete control
In short: as §2

[6] = system: bermudagrass; test: Test C pre-/postemergence herbicide test; assay type: in vivo, Cynodon dactylon; settings: for Plant response rating, Bermudagrass: preemergence; for Bermudagrass plant response rating: Preemergence, 500 g ai/ha
In short: as §2

[7] = system: rice; test: Test B pre-/postemergence herbicide test; assay type: in vivo, Oryza sativa; settings: preemergence; for Rice plant response rating (0 to 100 scale): 125 g ai/ha, 0 = no effect, 100 = complete control; for Plant response rating, Rice: 500 g ai/ha, visual rating 0-100, 0 no effect, 100 complete control
In short: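 Species tested were Echinochloa crus-galli, Ipomoea coccinea, Xanthium strumarium and Oryza sativa, treated both before emergence and at the 1- to 4-leaf stage; rice and barnyardgrass were also tested under flooding at 2 leaves. Greenhouse incubation lasted 13–15 days before visual 0–100 scoring.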

[8] = system: morningglory; test: Test A pre-/postemergence herbicide test; assay type: in vivo, Ipomoea spp.
In short: as §1

[9] = system: goosegrass; test: Test C pre-/postemergence herbicide test; assay type: in vivo, Eleusine indica; settings: for Plant response rating, Goosegrass: preemergence; for Goosegrass plant response rating: Preemergence, 500 g ai/ha, scale 0 to 100, 0 no effect, 100 complete control
In short: as §2

[10] = Postemergence, 500 g ai/ha, 0 to 100 scale, 0 no effect, 100 complete control
[11] = Postemergence, 2000 g ai/ha, 0 to 100 scale, 0 no effect, 100 complete control
[12] = Preemergence, 2000 g ai/ha, visual rating, 0 to 100 scale (0 no effect, 100 complete control)
[13] = preemergence, 500 g ai/ha, visual injury, 0 to 100 scale (0 no effect, 100 complete control)
[14] = 125 g ai/ha, scale 0 (no effect) to 100 (complete control), visual, 12 to 14 days
[15] = 62 g ai/ha, scale 0 to 100, 0 no effect, 100 complete control
[16] = scale 0 to 100, 0 no effect, 100 complete control

Row | Compound | Velvetleaf plant response rating [1, 10] | Plant response rating, Velvetleaf [1, 11] | Velvetleaf plant response rating [1, 12] | Velvetleaf plant response rating [1, 13] | Velvetleaf plant response rating (0 to 100 scale) ([2]; 125 g ai/ha) | Plant response rating, Velvetleaf ([2]; 500 g ai/ha) | Velvetleaf plant response rating ([2]; 125 g ai/ha) | Velvetleaf plant response rating ([2]; 500 g ai/ha) | Plant response rating, Morningglory ([3]; 62 g ai/ha, scale 0 to 100) | Plant response rating, Morningglory [3, 14] | Plant response rating, Morningglory ([3]; 250 g ai/ha, scale 0-100) | Morningglory plant response rating [3] | Plant response rating, Soybean ([4]; 62 g ai/ha, scale 0 to 100) | Plant response rating, Soybean [4, 14] | Plant response rating, Soybean ([4]; 250 g ai/ha, scale 0-100) | Soybean plant response rating [4] | Plant response rating, Cupgrass, Woolly ([5]; 62 g ai/ha, scale 0 to 100) | Plant response rating, Cupgrass, Woolly [5, 14] | Plant response rating, Cupgrass, Woolly ([5]; 250 g ai/ha, scale 0-100) | Cupgrass, Woolly plant response rating [5] | also measured
1 | CCNC(=O)c1cccc(NC(=O)c2sc(C(C)(C)C)nc2C)c1 [Compound 198] | 30 | 35 | 85 | 45 | 0 | 60 | 20 | 20 | 10 | 70 | 85 | 85 | 0 | 0 | 0 | 25 | 0 | 5 | 10 | 70 | Plant response rating, Bermudagrass [6, 15]: 60; Plant response rating, Bermudagrass [6, 14]: 85; Plant response rating, Bermudagrass ([6]; 250 g ai/ha, scale 0-100): 100; Bermudagrass plant response rating [6, 16]: 100; Rice plant response rating (0 to 100 scale) [7]: 30; Plant response rating, Rice [7]: 80; Morningglory plant response rating [8, 10]: 60; Plant response rating, Morningglory [8, 11]: 75; Morningglory plant response rating [8, 12]: 85; Morningglory plant response rating [8, 13]: 45; Plant response rating, Goosegrass ([9]; 62 g ai/ha, scale 0 to 100): 20; Plant response rating, Goosegrass [9, 14]: 80; Plant response rating, Goosegrass ([9]; 250 g ai/ha, scale 0-100): 95; Goosegrass plant response rating [9]: 100
2 | C=CCNC(=O)c1cccc(NC(=O)c2sc(C(C)(C)C)nc2CC)c1 [Compound 207] | 20 | 25 | 100 | 30 | 20 | 60 | 20 | 30 | 0 | 0 | 0 | 0 | 0 | 0 | 0 | 0 | 0 | 0 | 5 | 40 | Plant response rating, Bermudagrass [6, 15]: 50; Plant response rating, Bermudagrass [6, 14]: 80; Plant response rating, Bermudagrass ([6]; 250 g ai/ha, scale 0-100): 100; Bermudagrass plant response rating [6, 16]: 100; Rice plant response rating (0 to 100 scale) [7]: 50; Plant response rating, Rice [7]: 70; Morningglory plant response rating [8, 10]: 20; Plant response rating, Morningglory [8, 11]: 15; Morningglory plant response rating [8, 12]: 85; Morningglory plant response rating [8, 13]: 35; Plant response rating, Goosegrass ([9]; 62 g ai/ha, scale 0 to 100): 10; Plant response rating, Goosegrass [9, 14]: 60; Plant response rating, Goosegrass ([9]; 250 g ai/ha, scale 0-100): 80; Goosegrass plant response rating [9]: 100
